Nine molecules from patent publication US20080091033A1, “Nonsolvate-Form Crystal of Polymethine Compound, Process for Producing the Same and Use Thereof” (YAMAMOTO CHEMICALS, INC., priority 2004, published 2008) can be followed below.

For orientation: melting point means the temperature of the solid-liquid transition.

Data set [1] can be described thus: solubility in methanol and ethanol. In kind it is physicochemical. The settings on record: for solubility in ethanol: solvent ethanol; for solubility in methanol: solvent methanol.
Data set [2] in a line: solution stability test (decomposition percentage from absorbance before and after standing). In kind it is physicochemical. The following applies: 5% (w/v) in ethanol/methyl ethyl ketone (1/1 by volume), room temperature, 10 days of standing. The method, then:
A solution stability test was carried out in the following manner.
Each polymethine compound specified below in Table 1 was dissolved in a mixture of ethanol and methyl ethyl ketone (1/1 by volume) to a concentration of 5% (w/v) and the solution was allowed to stand in a room (at room temperature) for 10 days. The absorbance (gram extinction coefficient) of the solution was measured before and after standing, and the decomposition percentage was calculated using the following formula.
Decomposition percentage (%)=[(absorbance just after preparation of solution−absorbance after 10 days of standing)/(absorbance just after preparation of solution)]×100

Molecules are shown by their SMILES. Structures can show the parent of a compound that is named as a salt.

`CN1/C(=C\C=C2/CCC(/C=C/C3=[N+](C)c4ccccc4C3(C)C)=C2Cl)C(C)(C)c2ccccc21` [Example 2]: in data set [1], the solubility in ethanol is reported as not below 15% and the solubility in methanol is recorded as not below 15%. Besides, the Decomposition percentage in data set [2] worked out at 2.1%.
For the molecule `CN1/C(=C\C=C2/CCC(/C=C/C3=[N+](C)c4ccccc4C3(C)C)=C2Cl)C(C)(C)c2ccccc21` [Comparative Example 1, reference compound], the Decomposition percentage in data set [2] amounted to 8.1%.
Turning to `CN1/C(=C\C=C2/CCC(/C=C/C3=[N+](C)c4ccccc4C3(C)C)=C2Cl)C(C)(C)c2ccccc21` [Example 5], in data set [1], the solubility in ethanol is given as not below 15% and the solubility in methanol is reported as not below 15%.
In data set [1], `CN1/C(=C\C=C2/CCC(/C=C/C3=[N+](C)c4ccccc4C3(C)C)=C2Cl)C(C)(C)c2ccccc21` [Example 3] returned a solubility in ethanol not below 15% and a solubility in methanol not below 15%. Also, the Decomposition percentage in data set [2] turned out to be 2.2%.
Turning to `CN1/C(=C\C=C2/CCC(/C=C/C3=[N+](C)c4ccccc4C3(C)C)=C2Cl)C(C)(C)c2ccccc21` (as salt: toluenesulfonate) (hydrate or solvate) [Example 2], the melting point was 201 to 203 °C (dec.).
Still for that read-out and setting: then `CN1/C(=C\C=C2/CCC(/C=C/C3=[N+](C)c4ccccc4C3(C)C)=C2Cl)C(C)(C)c2ccccc21` (as salt: toluenesulfonate) (hydrate or solvate) [Example 3], with 198 to 199 °C (dec.); and `CN1/C(=C\C=C2/CCC(/C=C/C3=[N+](C)c4ccccc4C3(C)C)=C2Cl)C(C)(C)c2ccccc21` (as salt: toluenesulfonate) (hydrate or solvate) [Example 1], with 199 to 200 °C (dec.).
In data set [1], `CN1/C(=C\C=C2/CCC(/C=C/C3=[N+](C)c4ccccc4C3(C)C)=C2Cl)C(C)(C)c2ccccc21` [Example 1] gave a solubility in ethanol not below 15% and a solubility in methanol not below 15%. In addition, the Decomposition percentage in data set [2] worked out at 2.0%.
In data set [1], `CN1/C(=C\C=C2/CCC(/C=C/C3=[N+](C)c4ccccc4C3(C)C)=C2Cl)C(C)(C)c2ccccc21` [Example 4] yielded a solubility in ethanol not below 15% and a solubility in methanol not below 15%. In data set [2], this molecule had a Decomposition percentage of 1.9%.
